Biological target: T1, purified recombinantly expressed human SSAO (Homo sapiens, UniProt Q16853)
T1 construct: made in house
T1 sequence (Q16853 1-763): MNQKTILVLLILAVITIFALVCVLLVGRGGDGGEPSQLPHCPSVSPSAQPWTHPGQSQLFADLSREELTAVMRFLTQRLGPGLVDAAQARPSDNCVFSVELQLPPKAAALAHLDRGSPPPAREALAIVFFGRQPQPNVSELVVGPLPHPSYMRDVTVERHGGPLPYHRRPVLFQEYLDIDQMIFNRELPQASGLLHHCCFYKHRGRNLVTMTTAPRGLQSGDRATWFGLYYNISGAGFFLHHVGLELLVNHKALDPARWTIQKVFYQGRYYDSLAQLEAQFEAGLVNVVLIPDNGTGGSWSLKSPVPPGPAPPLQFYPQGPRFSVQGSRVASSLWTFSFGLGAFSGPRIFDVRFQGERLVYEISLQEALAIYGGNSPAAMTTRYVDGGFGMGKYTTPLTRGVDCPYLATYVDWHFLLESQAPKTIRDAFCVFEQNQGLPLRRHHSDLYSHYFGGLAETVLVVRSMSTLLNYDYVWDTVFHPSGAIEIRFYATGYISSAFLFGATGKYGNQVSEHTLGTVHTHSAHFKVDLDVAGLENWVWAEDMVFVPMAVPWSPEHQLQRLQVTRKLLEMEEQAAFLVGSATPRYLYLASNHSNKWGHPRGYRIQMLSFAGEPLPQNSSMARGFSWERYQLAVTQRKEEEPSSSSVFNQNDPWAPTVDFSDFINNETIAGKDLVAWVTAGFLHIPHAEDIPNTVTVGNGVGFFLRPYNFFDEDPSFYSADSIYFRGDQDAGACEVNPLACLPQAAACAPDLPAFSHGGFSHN
Assay: SSAO enzyme inhibition assay (benzylamine substrate; hydrogen peroxide/HRP-coupled or 14C aldehyde detection)
Assay type: biochemical
Conditions: SSAO inhibitory activity, RT
Description: All primary assays were performed at RT. with purified recombinantly expressed human SSAO. Enzyme was prepared essentially as described in Öhman et al. (Protein Expression and Purification 46 (2006) 321-331). In addition, secondary- and selectivity assays were performed using SSAO prepared from various tissues or purified rat recombinant SSAO. The enzyme activity was assayed with benzylamine as substrate by measuring either benzaldehyde production, using ^14C-labeled substrate, or by utilizing the production of hydrogen peroxide in a horseradish peroxidase (HRP) coupled reaction. Briefly, test compounds were dissolved in dimethyl sulfoxide (DMSO) to a concentration of 10 mM. Dose-response measurements were assayed by either creating 1:10 serial dilutions in DMSO to produce a 7 point curve or by making 1:3 serial dilutions in DMSO to produce 11 point curves.
In a horseradish peroxidase (HRP) coupled reaction, hydrogen peroxide oxidation of 10-acetyl-3,7-dihydroxyphenoxazine produced resorufin, which is a highly fluorescent compound (Zhout and Panchuk-Voloshina. Analytical Biochemistry 253 (1997) 169-174; Amplex® Red Hydrogen Peroxide/peroxidase Assay kit, Invitrogen A22188). Enzyme and compounds in 50 mM sodium phosphate, pH 7.4 were set to pre-incubate in flat-bottomed microtiter plates for approximately 15 min before initiating the reaction by addition of a mixture of HRP, benzylamine and Amplex reagent. Benzylamine concentration was fixed at a concentration corresponding to the Michaelis constant, determined using standard procedures. Fluorescence intensity was then measured at several time points during 1-2 h, exciting at 544 nm and reading the emission at 590 nm. For the human SSAO assay final concentrations of the reagents in the assay wells were: SSAO enzyme 1 ug/ml, benzylamine 100 uM, Amplex reagent 20 uM, HRP 0.1 U/mL and varying concentrations of test compound. The inhibition was measured as % decrease of the signal compared to a control without inhibitor (only diluted DMSO). The background signal from a sample containing no SSAO enzyme was subtracted from all data points. Data was fitted to a four parameter logistic model and IC50 values were calculated using the Graph Pad Prism 4 or XLfit 4 programs.
SSAO activity was assayed using 14C-labeled benzylamine and analysed by measuring radioactive benzaldehyde. In a white 96-well optiplate (Packard), 20 uL of diluted test compound was pre-incubated at room temperature with 20 uL SSAO enzyme for approximately 15 min with continuous agitation. All dilutions were made with PBS. The reaction was initiated by adding 20 uL of the benzylamine substrate solution containing [7-14C] Benzylamine hydrochloride (CFA589, GE Healthcare). The plate was incubated for 1 h as above after which the reaction was stopped by acidification (10 uL 1M aq HCl). Then 90 uL Micro Scint-E solution (Perkin-Elmer) was added to each well and the plate was continuously mixed for 15 min. Phase separation occurred instantly and activity was read in a Topcount scintillation counter (Perkin-Elmer). In the final reaction well, the human recombinant SSAO concentration was 10 ug/ml. In order to optimize sensitivity, the substrate concentration was decreased as compared to the HRP coupled assay in order to get a higher fraction of radioactive product. In the human SSAO assay, benzylamine concentration was 40 uM (0.2 uCi/mL). Data was analysed as above.

Row | Structure (SMILES) | IC50 [nM]
1 | CC(C)OCCNc1ncc(-c2nc3ccncc3n2-c2ccc(F)cc2)cn1 [Example 38, 5-[3-(4-Fluorophenyl)-3H-imidazo[4,5-c]pyridin-2-yl]-N-[2-(propan-2-yloxy)ethyl] pyrimidin-2-amine] | 50 to 200
2 | Cn1ccc(-c2cc3ccncc3n2-c2ccc(Cl)cc2)cc1=O [Example 143, 4-[1-(4-Chlorophenyl)-1H-pyrrolo[2,3-c]pyridin-2-yl]-1-methyl-1,2-dihydropyridin-2-one] | < 50
3 | Cc1ccc(-n2c(-c3cnc(N4CCOCC4)cc3C)nc3ccncc32)cc1 [Example 97, 4-{4-Methyl-5-[3-(4-methylphenyl)-3H-imidazo[4,5-c]pyridin-2-yl]pyridin-2-yl}morpholine] | 200 to 1200
4 | Cn1c(-c2cc3ccncc3n2-c2ccc(Cl)cc2)cccc1=O [Example 145, 6-[1-(4-Chlorophenyl)-1H-pyrrolo[2,3-c]pyridin-2-yl]-1-methyl-1,2-dihydropyridin-2-one] | < 50
5 | Fc1ccc(-n2c(-c3cnc(NC4CC4)nc3)nc3ccncc32)cc1 [Example 10, N-Cyclopropyl-5-[3-(4-fluorophenyl)-3H-imidazo [4,5-c]pyridin-2-yl]pyrimidin-2-amine] | 50 to 200
6 | CN(C)c1ncc(-c2cc3ccncc3n2-c2ccc(Cl)cc2)cn1 [Example 137, 5-[1-(4-Chlorophenyl)-1H-pyrrolo[2,3-c]pyridin-2-yl]-N,N-dimethylpyrimidin-2-amine; bis(trifluoroacetic acid)] | < 50
7 | NC(=O)N1CCN(c2ncc(-c3nc4ccncc4n3-c3ccc(Cl)cc3)o2)CC1 [Example 93, 4-{5-[3-(4-Chlorophenyl)-3H-imidazo[4,5-c]pyridin-2-yl]-1,3-oxazol-2-yl}piperazine-1-carboxamide] | 50 to 200
8 | CC(=O)N1CCCN(c2ccc(-c3nc4ccncc4n3-c3ccc(F)cc3)cn2)CC1 [Example 87, 1-(4-{5-[3-(4-Fluorophenyl)-3H-imidazo[4,5-c]pyridin-2-yl]pyridin-2-yl}-1,4-diazepan-1-yl)ethan-1-one; bis(trifluoroacetic acid)] | < 50
9 | Nc1ncc(-c2nc3ccncc3n2-c2ccc(Cl)cc2)cn1 [Example 31, 5-[3-(4-Chlorophenyl)-3H-imidazo[4,5-c]pyridin-2-yl] pyrimidin-2-amine] | 200 to 1200
10 | Cn1cncc1-c1cc2ccncc2n1-c1ccc(Cl)cc1 [Example 136, 5-[1-(4-Chlorophenyl)-1H-pyrrolo[2,3-c]pyridin-2-yl]-1-methyl-1H-imidazole] | < 50
11 | Brc1ccc(-n2c(-c3cnc(N4CCOCC4)nc3)cc3ccncc32)cc1 [Example 133, 4-{5-[1-(4-Bromophenyl)-1H-pyrrolo[2,3-c]pyridin-2-yl]pyrimidin-2-yl}morpholine] | < 50
12 | Cn1cc(-c2cc3ccncc3n2-c2ccc(Cl)cc2)cn1 [Example 135, 4-[1-(4-Chlorophenyl)-1H-pyrrolo[2,3-c]pyridin-2-yl]-1-methyl-1H-pyrazole] | < 50
13 | CN1CCN(c2ccc(-c3nc4ccncc4n3-c3ccc(F)cc3)cn2)CC1=O [Example 106, 4-{5-[3-(4-Fluorophenyl)-3H-imidazo[4,5-c]pyridin-2-yl]pyridin-2-yl}-1-methylpiperazin-2-one] | 50 to 200
14 | Cc1cc(NCC2CC2)ncc1-c1nc2ccncc2n1-c1ccc(F)cc1 [Example 101, N-(Cyclopropylmethyl)-5-[3-(4-fluorophenyl)-3H-imidazo[4,5-c]pyridin-2-yl]-4-methylpyridin-2-amine] | 50 to 200
15 | O=c1cc(-c2cc3ccncc3n2-c2ccccc2)ccn1C1CC1 [Example 155, 1-Cyclopropyl-4-{1-phenyl-1H-pyrrolo[2,3-c]pyridin-2-yl}-1,2-dihydropyridin-2-one] | 200 to 1200
16 | Clc1ccc(-n2c(-c3cnc(NC4CCOCC4)cn3)nc3ccncc32)cc1 [Example 7, 5-[3-(4-Chlorophenyl)-3H-imidazo[4,5-c]pyridin-2-yl]-N-(oxan-4-yl)pyrazin-2-amine] | 50 to 200
17 | CS(=O)(=O)Nc1ccc(-c2nc3ccncc3n2-c2ccc(Cl)cc2)cn1 [Example 16, N-{5-[3-(4-Chlorophenyl)-3H-imidazo[4,5-c]pyridin-2-yl]pyridin-2-yl} methanesulfonamide] | 200 to 1200
18 | Fc1ccc(-n2c(-c3ccc(N4CCOCC4)nc3)nc3ccncc32)c(Cl)c1 [Example 61, 4-{5-[3-(2-Chloro-4-fluorophenyl)-3H-imidazo[4,5-c]pyridin-2-yl]pyridin-2-yl}morpholine] | < 50
19 | Clc1ccc(-n2c(-c3cnc[nH]3)nc3ccncc32)cc1 [Example 44, 5-[3-(4-Chlorophenyl)-3H-imidazo[4,5-c]pyridin-2-yl]-1H-imidazole] | 200 to 1200
20 | Cn1ccc(-c2nc3ccncc3n2-c2ccc(F)cc2)cc1=O [Example 114, 4-[3-(4-Fluorophenyl)-3H-imidazo[4,5-c]pyridin-2-yl]-1-methyl-1,2-dihydropyridin-2-one] | 200 to 1200
21 | Cc1ccc(-n2c(-c3ccc(N4C[C@@H](C)O[C@@H](C)C4)nc3)nc3ccncc32)nc1 [Example 104, (2R,6S)-2,6-Dimethyl-4-{5-[3-(5-methylpyridin-2-yl)-3H-imidazo[4,5-c]pyridin-2-yl]pyridin-2-yl}morpholine] | < 50
22 | O=c1cc(-c2nc3ccncc3n2-c2ccc(Cl)cc2F)cc[nH]1 [Example 34, 4-[3-(4-Chloro-2-fluorophenyl)-3H-imidazo[4,5-c]pyridin-2-yl]-1,2-dihydropyridin-2-one] | 50 to 200
23 | CCOCCNc1ncc(-c2nc3ccncc3n2-c2ccc(C)cc2)cn1 [Example 43, N-(2-Ethoxyethyl)-5-[3-(4-methylphenyl)-3H-imidazo [4,5-c]pyridin-2-yl] pyrimidin-2-amine] | < 50
24 | Cn1ccc(-c2nc3ccncc3n2-c2ccc(Cl)cc2)cc1=O [Example 32, 4-[3-(4-Chlorophenyl)-3H-imidazo[4,5-c]pyridin-2-yl]-1-methyl-1,2-dihydropyridin-2-one] | < 50
25 | Fc1ccc(-n2c(-c3cnc(N4CCOCC4)nc3)nc3ccncc32)nc1 [Example 76, 4-{5-[3-(5-Fluoropyridin-2-yl)-3H-imidazo[4,5-c]pyridin-2-yl]pyrimidin-2-yl}morpholine] | 50 to 200
26 | Cc1nc(N2CCOCC2)ncc1-c1nc2ccncc2n1-c1ccc(Cl)cc1F [Example 27, 4-{5-[3-(4-Chloro-2-fluorophenyl)-3H-imidazo [4,5-c]pyridin-2-yl]-4-methylpyrimidin-2-yl} morpholine] | < 50
27 | Fc1ccc(-n2c(-c3cnc(C4CC4)nc3)nc3ccncc32)cc1 [Example 30, 2-Cyclopropyl-5-[3-(4-fluorophenyl)-3H-imidazo [4,5-c]pyridin-2-yl]pyrimidine] | 200 to 1200
28 | FC(F)(F)c1ccc(-n2c(-c3ccc(N4CCOCC4)nc3)nc3ccncc32)cc1 [Example 66, 4-(5-{3-[4-(Trifluoromethyl)phenyl]-3H-imidazo[4,5-c]pyridin-2-yl}pyridin-2-yl)morpholine] | 50 to 200

Source: patent US20150258101A1 (Proximagen Limited, priority 2014, published 2015)
